Experimental data as given in patent publication US9399638B2, “Substituted pyridine compounds as CRAC modulators” (LUPIN LIMITED, priority 2012, dated 2016).
pIC50: −log10 of the molar value.

Test system: IL-2 secretion by Jurkat T cells
Test: Inhibition of IL-2 secretion
Assay type: cell-based
Details: Homo sapiens; Jurkat T cells stimulated with PHA, 20 to 24 hours, IL-2 by ELISA
Protocol: The CRAC channel modulatory activity of the compounds were thus evaluated by measuring the secretion of IL-2 by antigen stimulated T-cells in vitro. Alternatively, such activity can also be evaluated by assay methods known to one skilled in the art.
Inhibition of IL-2 secretion: Jurkat T cells were seeded at a density of 0.5 to 1 million cells per well in RPMI medium. Test compounds from this invention were added to the cells at different concentrations. This was followed by the addition of PHA, a T cell mitogen after 10 minutes. The cells were then incubated for 20 to 24 hours in a CO2 incubator at 37° C. After incubation with the compounds, cells were centrifuged, the supernatant was collected and processed for ELISA to quantitate the amount of IL-2 secreted. A commercial ELISA kit (R&D Systems, Inc. Minneapolis, Minn., USA) was used to estimate the IL-2 concentrations. Amount of IL-2 secreted by cells stimulated with PHA was considered as a 100% maximal signal and the decrease in amount of IL-2 secreted by cells treated with the test compounds was expressed as percent inhibition of the maximal signal. The dose response data was analyzed using 4-parametric sigmoidal dose response (variable slope) curve—fit.

pIC50	SMILES
6.00 to 7.00	Cc1ncc(-c2nn(C)c(=O)o2)cc1-c1ccc(NC(=O)c2c(F)cccc2F)cc1 [Example 1, 2,6-Difluoro-N-(4-(2-methyl-5-(4-methyl-5-oxo-4,5-dihydro-1,3,4-oxadiazol-2-yl)pyridin-3-yl)phenyl)benzamide]
6.00 to 7.00	CCc1ncc(-c2nn(C)c(=O)o2)cc1-c1ccc(C(=O)Nc2c(F)cccc2F)cc1 [Example 3, N-(2,6-Difluorophenyl)-4-(2-ethyl-5-(4-methyl-5-oxo-4,5-dihydro-1,3,4-oxadiazol-2-yl)pyridin-3-yl)benzamide]
> 7.00	Cn1nc(-c2cnc(C3CC3)c(-c3ccc(NC(=O)c4c(F)cccc4F)cc3)c2)oc1=O [Example 4, N-(4-(2-Cyclopropyl-5-(4-methyl-5-oxo-4,5-dihydro-1,3,4-oxadiazol-2-yl)pyridin-3-yl)phenyl)-2,6-difluorobenzamide]
6.00 to 7.00	Cn1nc(-c2cnc(C3CC3)c(-c3ccc(C(=O)Nc4c(F)cccc4F)cc3)c2)oc1=O [Example 5, 4-(2-cyclopropyl-5-(4-methyl-5-oxo-4,5-dihydro-1,3,4-oxadiazol-2-yl)pyridin-3-yl)-N-(2,6-difluorophenyl)benzamide]
> 7.00	Cn1nc(-c2cnc(C(F)(F)F)c(-c3ccc(NC(=O)c4c(F)cccc4F)cc3)c2)oc1=O [Example 7, 2,6-difluoro-N-(4-(5-(4-methyl-5-oxo-4,5-dihydro-1,3,4-oxadiazol-2-yl)-2-(trifluoromethyl)pyridin-3-yl)phenyl)benzamide]
6.00 to 7.00	Cc1cc(NC(=O)c2c(F)cccc2F)ccc1-c1cc(-c2nn(C)c(=O)o2)cnc1C(F)(F)F [Example 8, 2,6-difluoro-N-(3-methyl-4-(5-(4-methyl-5-oxo-4,5-dihydro-1,3,4-oxadiazol-2-yl)-2-(trifluoromethyl)pyridin-3-yl)phenyl)benzamide]
> 7.00	CNc1ncc(-c2nn(C)c(=O)o2)cc1-c1ccc(NC(=O)c2c(F)cccc2F)cc1 [Example 10, 2,6-Difluoro-N-(4-(5-(4-methyl-5-oxo-4,5-dihydro-1,3,4-oxadiazol-2-yl)-2-(methylamino)pyridin-3-yl)phenyl)benzamide]
> 7.00	CNc1ncc(-c2nn(C)c(=O)o2)cc1-c1ccc(NC(=O)c2c(F)cccc2Cl)cc1 [Example 11, 2-Chloro-6-fluoro-N-(4-(5-(4-methyl-5-oxo-4,5-dihydro-1,3,4-oxadiazol-2-yl)-2-(methylamino)pyridin-3-yl)phenyl)benzamide]
> 7.00	CNc1ncc(-c2nn(C)c(=O)o2)cc1-c1ccc(NC(=O)c2c(C)cccc2F)cc1 [Example 12, 2-Fluoro-6-methyl-N-(4-(5-(4-methyl-5-oxo-4,5-dihydro-1,3,4-oxadiazol-2-yl)-2-(methylamino)pyridin-3-yl)phenyl)benzamide]
6.00 to 7.00	CNc1ncc(-c2nn(C)c(=O)o2)cc1-c1ccc(NC(=O)c2c(F)cccc2F)cc1C [Example 13, 2,6-Difluoro-N-(3-methyl-4-(5-(4-methyl-5-oxo-4,5-dihydro-1,3,4-oxadiazol-2-yl)-2-(methylamino)pyridin-3-yl)phenyl)benzamide]

SMILES	pIC50
CCc1ncc(-c2nn(C)c(=O)o2)cc1-c1ccc(NC(=O)c2c(F)cccc2F)cc1 [Example 2, N-(4-(2-ethyl-5-(4-methyl-5-oxo-4,5-dihydro-1,3,4-oxadiazol-2-yl)pyridin-3-yl)phenyl)-2,6-difluorobenzamide]	> 7.00
COc1ncc(-c2nn(C)c(=O)o2)cc1-c1ccc(NC(=O)c2c(F)cccc2F)cc1 [Example 6, 2,6-Difluoro-N-(4-(2-methoxy-5-(4-methyl-5-oxo-4,5-dihydro-1,3,4-oxadiazol-2-yl)pyridin-3-yl)phenyl)benzamide]	> 7.00
Cn1nc(-c2cnc(C(F)(F)F)c(-c3ccc(NC(=O)c4c(F)cccc4Cl)cc3)c2)oc1=O [Example 9, 2-Chloro-6-fluoro-N-(4-(5-(4-methyl-5-oxo-4,5-dihydro-1,3,4-oxadiazol-2-yl)-2-(trifluoromethyl)pyridin-n-3-yl)phenyl)benzamide]	6.00 to 7.00
